Assay results taken from ChEMBL document CHEMBL3885881, “DrugMatrix”.

Species on record: Rattus norvegicus
Assay: DrugMatrix - Regimen: Daily Repeat
Type: toxicity, organism-based, Sprague-Dawley
Parameters: regimen Daily Repeat, gender Male, age 6-8 weeks
Conditions: in vivo, po, route oral GAVAGE, […]; for ABSOLUTE BASOPHIL / ABSOLUTE EOSINOPHIL / ABSOLUTE LYMPHOCYTE / ABSOLUTE MONOCYTE / ABSOLUTE SEGMENTED NEUTROPHIL / BASOPHIL / EOSINOPHIL / ERYTHROCYTE COUNT / HEMATOCRIT / HEMOGLOBIN / LEUKOCYTE COUNT / LYMPHOCYTE / MEAN CORPUSCULAR HEMOGLOBIN / MEAN CORPUSCULAR HEMOGLOBIN CONCENTRATION / MEAN CORPUSCULAR VOLUME / MONOCYTE / NEUTROPHIL / NUCLEATED RED BLOOD CELLS / PLATELET COUNT: tissue Blood; for ALANINE AMINOTRANSFERASE / ALBUMIN / ALKALINE PHOSPHATASE / ASPARTATE AMINOTRANSFERASE / BLOOD UREA NITROGEN / CARBON DIOXIDE / CHLORIDE / CHOLESTEROL / CREATINE PHOSPHOKINASE / CREATININE / GLUCOSE / LACTATE DEHYDROGENASE / LIPASE / PHOSPHORUS / POTASSIUM / SODIUM / TOTAL BILIRUBIN / TOTAL PROTEIN / URIC ACID: tissue Plasma
[1] = 25 mg/kg, 120 h, dose level Low, time 5 day
[2] = 800 mg/kg, 72 h, dose level High, time 3 day
[3] = 800 mg/kg, 120 h, dose level High, time 5 day

CC(C)(C)NC(=O)[C@H]1CC[C@H]2[C@@H]3CC[C@H]4NC(=O)C=C[C@]4(C)[C@H]3CC[C@]12C [FINASTERIDE]
ABSOLUTE BASOPHIL [1]: 0 CELLS/uL
ABSOLUTE EOSINOPHIL [1]: 34.67 CELLS/uL
ABSOLUTE LYMPHOCYTE [1]: 7140 CELLS/uL
ABSOLUTE MONOCYTE [1]: 141.33 CELLS/uL
ABSOLUTE SEGMENTED NEUTROPHIL [1]: 817.33 CELLS/uL
BASOPHIL [1]: 0%
EOSINOPHIL [1]: 0.67%
ERYTHROCYTE COUNT [1]: 5.11 x10E6/uL
HEMATOCRIT [1]: 33.07%
HEMOGLOBIN [1]: 13.03 G/DL
LEUKOCYTE COUNT [1]: 8.13 x10E3/uL
LYMPHOCYTE [1]: 87.67%
MEAN CORPUSCULAR HEMOGLOBIN [1]: 25.53 pg
MEAN CORPUSCULAR HEMOGLOBIN CONCENTRATION [1]: 39.4 G/DL
MEAN CORPUSCULAR VOLUME [1]: 64.77 fL
MONOCYTE [1]: 1.67%
NEUTROPHIL [1]: 10%
NUCLEATED RED BLOOD CELLS [1]: 0 /100WBC
PLATELET COUNT [1]: 1248.33 x10E3/uL
ALANINE AMINOTRANSFERASE [1]: 61 u/L
ALBUMIN [1]: 4.23 G/DL
ALKALINE PHOSPHATASE [1]: 355.67 u/L
ASPARTATE AMINOTRANSFERASE [1]: 74.67 u/L
BLOOD UREA NITROGEN [1]: 11.67 mg/dL
CARBON DIOXIDE [1]: 32.33 mmol/L
CHLORIDE [1]: 103 MEQ/L
CHOLESTEROL [1]: 87.33 mg/dL
CREATINE PHOSPHOKINASE [1]: 247.33 u/L
CREATININE [1]: 0.43 mg/dL
GLUCOSE [1]: 152 mg/dL
LACTATE DEHYDROGENASE [1]: 82.33 u/L
LIPASE [1]: 11 u/L
PHOSPHORUS [1]: 11.7 mg/dL
POTASSIUM [1]: 6.04 MEQ/L
SODIUM [1]: 146.03 MEQ/L
TOTAL BILIRUBIN [1]: 0.17 mg/dL
TOTAL PROTEIN [1]: 5.93 G/DL
URIC ACID [1]: 0.8 mg/dL
ABSOLUTE BASOPHIL [2]: 0 CELLS/uL
ABSOLUTE EOSINOPHIL [2]: 0 CELLS/uL
ABSOLUTE LYMPHOCYTE [2]: 7333 CELLS/uL
ABSOLUTE MONOCYTE [2]: 111.33 CELLS/uL
ABSOLUTE SEGMENTED NEUTROPHIL [2]: 889 CELLS/uL
BASOPHIL [2]: 0%
EOSINOPHIL [2]: 0%
ERYTHROCYTE COUNT [2]: 5.15 x10E6/uL
HEMATOCRIT [2]: 31.93%
HEMOGLOBIN [2]: 12.77 G/DL
LEUKOCYTE COUNT [2]: 8.33 x10E3/uL
LYMPHOCYTE [2]: 88.33%
MEAN CORPUSCULAR HEMOGLOBIN [2]: 24.83 pg
MEAN CORPUSCULAR HEMOGLOBIN CONCENTRATION [2]: 40 G/DL
MEAN CORPUSCULAR VOLUME [2]: 62.17 fL
MONOCYTE [2]: 1.33%
NEUTROPHIL [2]: 10.33%
NUCLEATED RED BLOOD CELLS [2]: 0 /100WBC
PLATELET COUNT [2]: 974.67 x10E3/uL
ALANINE AMINOTRANSFERASE [2]: 103.67 u/L
ALBUMIN [2]: 3.93 G/DL
ALKALINE PHOSPHATASE [2]: 409.67 u/L
ASPARTATE AMINOTRANSFERASE [2]: 102.67 u/L
BLOOD UREA NITROGEN [2]: 11 mg/dL
CARBON DIOXIDE [2]: 26 mmol/L
CHLORIDE [2]: 102.33 MEQ/L
CHOLESTEROL [2]: 70.33 mg/dL
CREATINE PHOSPHOKINASE [2]: 348.33 u/L
CREATININE [2]: 0.1 mg/dL
GLUCOSE [2]: 149 mg/dL
LACTATE DEHYDROGENASE [2]: 104.67 u/L
LIPASE [2]: 10.67 u/L
PHOSPHORUS [2]: 11.3 mg/dL
POTASSIUM [2]: 5.02 MEQ/L
SODIUM [2]: 144 MEQ/L
TOTAL BILIRUBIN [2]: 0.1 mg/dL
TOTAL PROTEIN [2]: 5.37 G/DL
URIC ACID [2]: 0.87 mg/dL
ABSOLUTE BASOPHIL [3]: 0 CELLS/uL
ABSOLUTE EOSINOPHIL [3]: 85.67 CELLS/uL
ABSOLUTE LYMPHOCYTE [3]: 6528 CELLS/uL
ABSOLUTE MONOCYTE [3]: 164.33 CELLS/uL
ABSOLUTE SEGMENTED NEUTROPHIL [3]: 922 CELLS/uL
BASOPHIL [3]: 0%
EOSINOPHIL [3]: 1%
ERYTHROCYTE COUNT [3]: 5.25 x10E6/uL
HEMATOCRIT [3]: 33.4%
HEMOGLOBIN [3]: 12.97 G/DL
LEUKOCYTE COUNT [3]: 7.7 x10E3/uL
LYMPHOCYTE [3]: 85%
MEAN CORPUSCULAR HEMOGLOBIN [3]: 24.7 pg
MEAN CORPUSCULAR HEMOGLOBIN CONCENTRATION [3]: 38.83 G/DL
MEAN CORPUSCULAR VOLUME [3]: 63.67 fL
MONOCYTE [3]: 2%
NEUTROPHIL [3]: 12%
NUCLEATED RED BLOOD CELLS [3]: 0 /100WBC
PLATELET COUNT [3]: 1238.33 x10E3/uL
ALANINE AMINOTRANSFERASE [3]: 55.33 u/L
ALBUMIN [3]: 4.33 G/DL
ALKALINE PHOSPHATASE [3]: 297 u/L
ASPARTATE AMINOTRANSFERASE [3]: 76.67 u/L
BLOOD UREA NITROGEN [3]: 13.67 mg/dL
CARBON DIOXIDE [3]: 32.33 mmol/L
CHLORIDE [3]: 103 MEQ/L
CHOLESTEROL [3]: 66.33 mg/dL
CREATINE PHOSPHOKINASE [3]: 232.33 u/L
CREATININE [3]: 0.12 mg/dL
GLUCOSE [3]: 157.67 mg/dL
LACTATE DEHYDROGENASE [3]: 64.33 u/L
LIPASE [3]: 10.33 u/L
PHOSPHORUS [3]: 11.1 mg/dL
POTASSIUM [3]: 5.99 MEQ/L
SODIUM [3]: 147.03 MEQ/L
TOTAL BILIRUBIN [3]: 0.1 mg/dL
TOTAL PROTEIN [3]: 6.07 G/DL
URIC ACID [3]: 0.5 mg/dL
